# Assay results as given in US6372799B1, “Non-sedating diphenhydramine metabolites” (Bridge Pharma, Inc., priority 1998, dated 2002).
# Test system: physostigmine-induced lethality in mice
# Test: Sedative effects in vivo, physostigmine-induced lethality test
# Details: result in words, figures not given
# Description: The physostigmine-induced lethality test is being used in the present studies. This test is a modification of the sedation test technique reported by VILLANI et al., in U.S. Pat. No. 4,659,716. In short, physostigmine (1.9 mg/kg s.c.) produces 90-100% lethality when given to grouped mice with 10 animals in each plastic cage (approx. 11×26×13 cm). Mice administered a sedating agent, such as for example a sedative antihistamine prior to physostigmine are protected and survive. In the present study, test compounds are administered orally 60 minutes prior to physostigmine. The number of survivors is counted 30 minutes after physostigmine administration.
compound,measurement,value
"CN(C)CCOC(c1ccccc1)c1ccccc1 [diphenhydramine, DIPHENHYDRAMINE]",sedative activity / sedative side effects,profound sedative side effects
